Laboratory results published in patent publication US20230293517A1, “ANTAGONIST COMPOUNDS” (AdoRx Therapeutics Limited, priority 2020, published 2023).

What was measured:
[1] = molecular target: human Adenosine A1 receptor (Homo sapiens (Human), UniProt P30542); assay: Adenosine receptor TR-FRET binding assay (A1); conditions: inhibition of binding of 100 nM CA200645, CHO cell membranes
Summary of the method: (§1)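 CHO cell membranes carrying terbium-tagged human A1, A2a, A2b or A3 receptors were incubated 2 h at room temperature with compound and CA200645 tracer (A2b 30 nM; others 100 nM). Specific binding from time-resolved FRET ratios, minus 10 μM XAC background; IC50 converted to Ki (Cheng–Prusoff).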

[2] = molecular target: human Adenosine A2a receptor (Homo sapiens (Human), UniProt P29274); assay: Adenosine receptor TR-FRET binding assay (A2a); conditions: inhibition of binding of 100 nM CA200645, CHO cell membranes
Summary of the method: as §1

[3] = molecular target: human Adenosine A2b receptor (Homo sapiens (Human), UniProt P29275); assay: Adenosine receptor TR-FRET binding assay (A2b); conditions: TR-FRET, inhibition of binding of 30 nM CA200645, CHO cell membranes
Summary of the method: as §1

[4] = system: CD8+T cells in human whole blood; assay: Measurement of pCREB in CD8+T cells in human whole blood; assay type: cell-based; conditions: 3 μM NECA, rolipram
Protocol: Biological Example—Measurement of pCREB in CD8+T Cells in Human Whole Blood
Heparinised human whole blood was pre-incubated at 37° C. with serial dilutions of A2a antagonists for 20 min. and the phosphodiesterase inhibitor rolipram to amplify the pCREB response. The adenosine receptor agonist NECA is then added at a final concentration of 3 μM and following a 60 min incubation the blood is fixed and red blood cells lysed. White blood cells are isolated, permeabilized and stained with directly conjugated fluorescent antibodies to phospho-CREB (Alexa Fluor 488) and CD8 (Alexa Fluor 647) and the level of phospho-CREB in CD8+T cells is measured by FACS using a BD Accuri C6 Flow Cytometer.

[5] = molecular target: human Adenosine A3 receptor (Homo sapiens (Human), UniProt P0DMS8); assay: Adenosine receptor TR-FRET binding assay (A3); conditions: inhibition of binding of 100 nM CA200645, CHO cell membranes
Summary of the method: as §1

human Adenosine A2b receptor, sequence (P29275 whole entry): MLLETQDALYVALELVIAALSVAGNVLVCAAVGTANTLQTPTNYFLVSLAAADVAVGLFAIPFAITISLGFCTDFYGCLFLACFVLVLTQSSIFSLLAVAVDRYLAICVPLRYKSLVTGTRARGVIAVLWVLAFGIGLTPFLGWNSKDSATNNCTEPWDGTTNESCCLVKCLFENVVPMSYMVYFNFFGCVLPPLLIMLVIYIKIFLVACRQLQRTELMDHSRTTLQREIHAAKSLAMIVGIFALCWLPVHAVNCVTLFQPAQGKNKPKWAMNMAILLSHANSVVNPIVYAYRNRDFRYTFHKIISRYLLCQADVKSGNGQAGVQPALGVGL
human Adenosine A2a receptor, sequence (P29274 whole entry): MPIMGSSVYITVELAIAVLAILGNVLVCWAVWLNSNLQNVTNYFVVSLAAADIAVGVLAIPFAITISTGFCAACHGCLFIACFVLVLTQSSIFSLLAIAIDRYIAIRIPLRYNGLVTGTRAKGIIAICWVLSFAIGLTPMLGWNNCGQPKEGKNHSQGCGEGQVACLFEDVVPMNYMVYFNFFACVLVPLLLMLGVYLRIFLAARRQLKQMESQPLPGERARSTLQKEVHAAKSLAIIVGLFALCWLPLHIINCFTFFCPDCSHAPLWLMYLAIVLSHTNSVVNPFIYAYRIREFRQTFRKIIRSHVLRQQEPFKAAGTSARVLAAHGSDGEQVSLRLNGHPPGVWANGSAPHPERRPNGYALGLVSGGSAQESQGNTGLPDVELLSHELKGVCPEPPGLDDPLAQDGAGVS
human Adenosine A1 receptor, sequence (P30542 whole entry): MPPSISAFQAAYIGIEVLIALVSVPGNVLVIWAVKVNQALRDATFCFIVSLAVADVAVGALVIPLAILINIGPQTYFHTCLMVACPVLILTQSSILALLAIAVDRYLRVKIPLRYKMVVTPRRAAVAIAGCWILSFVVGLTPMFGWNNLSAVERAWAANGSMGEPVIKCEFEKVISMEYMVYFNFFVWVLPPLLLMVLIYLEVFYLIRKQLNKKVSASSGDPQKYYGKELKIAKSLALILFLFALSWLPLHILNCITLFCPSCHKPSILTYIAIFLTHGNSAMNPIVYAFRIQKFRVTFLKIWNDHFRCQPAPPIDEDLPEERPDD
human Adenosine A3 receptor, sequence (P0DMS8 whole entry): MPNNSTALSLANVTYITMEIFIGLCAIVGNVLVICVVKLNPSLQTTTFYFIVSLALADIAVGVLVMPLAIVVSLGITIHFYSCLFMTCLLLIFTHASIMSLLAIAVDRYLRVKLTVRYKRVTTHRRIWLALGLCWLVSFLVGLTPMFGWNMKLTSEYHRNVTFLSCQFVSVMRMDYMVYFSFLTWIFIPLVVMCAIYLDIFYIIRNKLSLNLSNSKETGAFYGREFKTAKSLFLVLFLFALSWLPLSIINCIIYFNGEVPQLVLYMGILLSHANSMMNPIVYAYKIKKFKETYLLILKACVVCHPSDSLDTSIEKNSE

Ki [1] [µM] | Ki [2] [µM] | Ki [3] [µM] | IC50 [4] [µM] | Ki [5] [µM] | SMILES
0.019 | 0.00042 | 0.0012 | 0.01 |  | Cc1cc(-c2sc(NC(=O)N3CC4(COC4)C3)nc2-c2cccc(C#N)c2)cc([C@@H](C)O)n1 (single isomer, unassigned) [Example 12.3b, N-[4-(3-Cyanophenyl)-5-[2-[(1R)-1-hydroxyethyl]-6-methyl-4-pyridyl]thiazol-2-yl]-2-oxa-6-azaspiro[3.3]heptane-6-carboxamide or N-[4-(3-cyanophenyl)-5-[2-[(1S)-1-hydroxyethyl]-6-methyl-4-pyridyl]thiazol-2-yl]-2-oxa-6-azaspiro[3.3]heptane-6-carboxamide]
0.01 | 0.00053 | 0.0018 | 0.03 | 0.502 | Cc1cc(-c2sc(NC(=O)N3CCC(C)(O)CC3)nc2-c2cccc(C#N)c2)cc(C)n1 [Example 6.96, N-[4-(3-Cyanophenyl)-5-(2,6-dimethyl-4-pyridyl)thiazol-2-yl]-4-hydroxy-4-methyl-piperidine-1-carboxamide]
0.029 | 0.00111 | 0.0081 |  | 1.51 | Cc1cc(-c2sc(NC(=O)N3CC[S+]([O-])CC3)nc2-c2cccc(C#N)c2)cc(CO)n1 [Example 9.3]
0.41 | 0.00419 | 0.0201 |  | 1.54 | Cc1cc(-c2sc(NC(=O)N3CCN(C4COC4)CC3)nc2-c2cccc(C#N)c2)cc(CO)n1 [Example 9.4]
0.174 | 0.00228 | 0.0075 |  | 0.699 | Cc1cc(-c2sc(NC(=O)N3CCC4(CC3)C(=O)N(C)C(=O)N4C)nc2-c2cccc(C#N)c2)cc(CO)n1 [Example 9.5]
0.012 | 0.00051 | 0.0029 |  | 0.369 | Cc1cc(-c2sc(NC(=O)N3CCC(C#N)CC3)nc2-c2cccc(C#N)c2)cc(CO)n1 [Example 9.6]
0.007 | 0.0002 | 0.0031 |  | 1.24 | Cc1cc(-c2sc(NC(=O)N3CC4(CCOC4)C3)nc2-c2cccc(C#N)c2)cc(C(C)(C)O)n1 [Example 12.1, N-[4-(3-Cyanophenyl)-5-[2-(1-hydroxy-1-methyl-ethyl)-6-methyl-4-pyridyl]thiazol-2-yl]-6-oxa-2-azaspiro[3.4]octane-2-carboxamide]
0.054 | 0.00513 | 0.0196 |  | 0.054 | Cc1cc(-c2sc(NC(=O)N3CCNC[C@@H]3C)nc2-c2cccc(C#N)c2)cc(C)n1 [Example 13.4, (2S)-N-[4-(3-Cyanophenyl)-5-(2,6-dimethyl-4-pyridyl)thiazol-2-yl]-2-methyl-piperazine-1-carboxamide]
0.084 | 0.00987 | 0.0188 |  | 0.226 | Cc1cc(-c2sc(NC(=O)N3CCNC[C@@H]3CO)nc2-c2cccc(C#N)c2)cc(C)n1 [Example 13.5, (2R)-N-[4-(3-Cyanophenyl)-5-(2,6-dimethyl-4-pyridyl)thiazol-2-yl]-2-(hydroxymethyl)piperazine-1-carboxamide]
0.22 | 0.0168 | 0.0797 |  | 0.133 | Cc1cc(-c2sc(NC(=O)N3CCNC[C@H]3CO)nc2-c2cccc(C#N)c2)cc(C)n1 [Example 13.6, (2S)-N-[4-(3-Cyanophenyl)-5-(2,6-dimethyl-4-pyridyl)thiazol-2-yl]-2-(hydroxymethyl)piperazine-1-carboxamide]
0.047 | 0.00238 | 0.0123 |  | 0.041 | Cc1cc(-c2sc(NC(=O)N3CCNC[C@H]3C)nc2-c2cccc(C#N)c2)cc(C)n1 [Example 13.8, (2R)-N-[4-(3-Cyanophenyl)-5-(2,6-dimethyl-4-pyridyl)thiazol-2-yl]-2-methyl-piperazine-1-carboxamide]
0.225 | 0.00201 | 0.0149 |  | 0.646 | Cc1cc(-c2sc(NC(=O)N3CCC4(COCCN4)C3)nc2-c2cccc(C#N)c2)cc(C)n1 (stereo not shown) [Example 13.9]
0.061 | 0.00456 | 0.0145 |  | 0.573 | Cc1cc(-c2sc(NC(=O)N3CCN[C@H](C(F)(F)F)C3)nc2-c2cccc(C#N)c2)cc(C)n1 [Example 13.10, (3S)-N-[4-(3-Cyanophenyl)-5-(2,6-dimethyl-4-pyridyl)thiazol-2-yl]-3-(trifluoromethyl)piperazine-1-carboxamide]
0.019 | 0.00048 | 0.008 | 0.11 | 0.871 | Cc1cc(-c2sc(NC(=O)N3CCN[C@@H](C(F)(F)F)C3)nc2-c2cccc(C#N)c2)cc(C)n1 [Example 13.13, (3R)-N-[4-(3-Cyanophenyl)-5-(2,6-dimethyl-4-pyridyl)thiazol-2-yl]-3-(trifluoromethyl)piperazine-1-carboxamide]
0.045 | 0.00271 | 0.0074 |  | 0.047 | Cc1cc(-c2sc(NC(=O)N3CCN[C@H](C)C3)nc2-c2cccc(C#N)c2)cc(C(F)(F)F)n1 [Example 14, (3R)—N-[4-(3-Cyanophenyl)-5-[2-methyl-6-(trifluoromethyl)-4-pyridyl]thiazol-2-yl]-3-methyl-piperazine-1-carboxamide]
0.055 | 0.00271 | 0.0024 |  | 0.334 | COc1cc(-c2sc(NC(=O)N3CCS(=N)(=O)CC3)nc2-c2cccc(C#N)c2)cc(C)n1 [Example 16, N-[4-(3-Cyanophenyl)-5-(2-methoxy-6-methyl-4-pyridyl)thiazol-2-yl]-1-imino-1-oxo-1,4-thiazinane-4-carboxamide]
0.016 | 0.00038 | 0.0014 |  | 0.135 | Cc1cc(-c2sc(NC(=O)N3CC[S+]([O-])CC3)nc2-c2cccc(C#N)c2)cc(C(F)(F)F)n1 [Example 16.2]
0.082 | 0.00571 | 0.0062 |  | 0.383 | COc1cc(-c2sc(NC(=O)N3CC[S+]([O-])CC3)nc2-c2cccc(C#N)c2)cc(C)n1 [Example 16.3]
0.087 | 0.0119 | 0.0199 |  | 0.325 | Cc1cc(-c2sc(NC(=O)N3CC[S+]([O-])CC3)nc2-c2cccc(C#N)c2)cc(C#N)n1 [Example 16.5]
0.006 | 0.00013 | 0.0011 |  | 0.537 | Cc1cc(-c2sc(NC(=O)N3CC4(COC4)C3)nc2-c2cccc(C#N)c2)cc(C(C)C)n1 [Example 16.8]
0.043 | 0.00057 | 0.0017 |  | 0.254 | N#Cc1cccc(-c2nc(NC(=O)N3CC4(COC4)C3)sc2-c2cc(Cl)nc(Cl)c2)c1 [Example 16.10]
0.137 | 0.00186 | 0.0079 | 0.29 |  | CC(=O)Nc1cc(-c2sc(NC(=O)N3CC4(COC4)C3)nc2-c2cccc(C#N)c2)cc(C)n1 [Example 19, N-[5-(2-Acetamido-6-methyl-4-pyridyl)-4-(3-cyanophenyl)thiazol-2-yl]-2-oxa-6-azaspiro[3.3]heptane-6-carboxamide]
0.133 | 0.00685 | 0.0391 |  | 2.54 | CC(=O)NCc1cc(-c2sc(NC(=O)N3CC4(COC4)C3)nc2-c2cccc(C#N)c2)cc(C)n1 [Example 20, N-[5-[2-(Acetamidomethyl)-6-methyl-4-pyridyl]-4-(3-cyanophenyl)thiazol-2-yl]-2-oxa-6-azaspiro[3.3]heptane-6-carboxamide]
0.007 | 0.0002 | 0.0032 |  | 2.06 | COC(C)c1cc(-c2sc(NC(=O)N3CC4(COC4)C3)nc2-c2cccc(C#N)c2)cc(C)n1 (stereo not shown) [Example 22, N-[4-(3-Cyanophenyl)-5-[2-(1-methoxyethyl)-6-methyl-4-pyridyl]thiazol-2-yl]-2-oxa-6-azaspiro[3.3]heptane-6-carboxamide]

SMILES | Ki [1] [µM] | Ki [2] [µM] | Ki [3] [µM] | IC50 [4] [µM] | Ki [5] [µM]
Cc1cc(-c2sc(NC(=O)N3CC4CC(C3)N4)nc2-c2cccc(C#N)c2)cc(C)n1 [Example 13.7, N-[4-(3-Cyanophenyl)-5-(2,6-dimethyl-4-pyridyl)thiazol-2-yl]-3,6-diazabicyclo[3.1.1]heptane-3-carboxamide] | 0.174 | 0.00746 | 0.0137 |  | 0.256
Cc1cc(-c2sc(NC(=O)N3CC4CCC(C3)N4)nc2-c2cccc(C#N)c2)cc(C)n1 [Example 13.11, N-[4-(3-Cyanophenyl)-5-(2,6-dimethyl-4-pyridyl)thiazol-2-yl]-3,8-diazabicyclo[3.2.1]octane-3-carboxamide] | 0.132 | 0.0129 | 0.0584 |  | 0.226
